For data set [1], the system named is Salmonella typhimurium TA1535. In words: Preincubation Ames test, strain TA1535. The format is cell-based. The settings on record: for Effectiveness of time of preincubation for most effective S9 / More effective %S9 in S9 mix of more effective S9 (H or R) / Effectiveness of hamster vs. rat S9s for each positive strain: strain TA1535; for Effectiveness of time of preincubation for most effective S9: 30 vs 60 min; for Mutagenic response in TA1535: any activation condition and preincubation time; for More effective %S9 in S9 mix of more effective S9 (H or R): 10% vs 30% S9 in the S9 mix; for Effectiveness of hamster vs. rat S9s for each positive strain: H = hamster liver S9, R = rat liver S9.

Data set [2] has as its system Salmonella typhimurium TA100. The experiment in a line: Preincubation Ames test, strain TA100. The format is cell-based. To be noted: for Effectiveness of time of preincubation for most effective S9: 30 vs 60 min.
In data set [3] the test system is E. coli WP2 uvrA (pKM101). The experiment in a line: Preincubation Ames test, strain WP2 uvrA. In kind it is cell-based, Escherichia coli. The settings on record: for Effectiveness of time of preincubation for most effective S9 / Effectiveness of hamster vs. rat S9s for each positive strain: strain WP2 uvrA (pKM101); for Effectiveness of time of preincubation for most effective S9: 30 vs 60 min; for Effectiveness of hamster vs. rat S9s for each positive strain: H = hamster liver S9, R = rat liver S9; for Mutagenic response in WP2 uvrA (pKM101): any activation condition and preincubation time.

For data set [4] the following is noted: published by FDA as of September 4, 2024, ref FDA, 2024a; cited from earlier work.
For data set [5] the following is noted: PC1 most potent, PC5 least potent; ref FDA, 2024a; cited from earlier work.
Data set [6] has as its system CHO, V79, L5178Y/Tk+/−, TK6, HepaRG cells. The settings on record: cell lines as named in the value; ref as given in Table 2 Notes; cited from earlier work.
Data set [7] deals with Salmonella typhimurium tester strains TA98, TA100, TA1535, and TA1537, and Escherichia coli strain WP2 uvrA (pKM101). The experiment in a line: Preincubation Ames test, five tester strains. In kind it is cell-based. The settings on record: for Effect of length of preincubation on positive responses: 30 min vs 60 min, over all strains.
The next data set concerns Ames tester strains. To be noted: cited from earlier work.
For data set [8] the following is noted: cited from earlier work.
Data set [9] has as its system Salmonella typhimurium TA98. The experiment in a line: Preincubation Ames test, strain TA98. The format is cell-based. The settings on record: for Direct-acting mutagenicity in TA98: no exogenous metabolic activation (no S9); for Effectiveness of time of preincubation for most effective S9: 30 vs 60 min.
Setting [10] is: published/posted results, ref representative Ames references of Table 2.
[11] abbreviates: listed as N-nitroso-N-ethylaniline.
Where [12] appears, read: with S9 activation, listed as N-nitroso-propranolol.

Each structure is given as a SMILES string. “Also recorded” adds a separate entry of the source. Like-named read-outs stand apart in the source and are kept apart here.

In the case of `O=NN1CCN(C2CCCC2)CC1` [SM-10, 1-Cyclopentyl-4-nitrosopiperazine], the “Effectiveness of time of preincubation for most effective S9” value (from here on “Effectiveness of time of preincubation”) in data set [1] is 60min = 30min; in [2] (strain TA100), 30min ≥60min; in [3] it was 60min = 30min. In data set [3], the “Effectiveness of hamster vs. rat S9s for each positive strain” value (shortened to “Effectiveness of hamster vs. rat S9s”) is “H only”. Moreover, the AI limit in data set [4] is recorded as 400 ng/day. The “CPCA Potency Category (PC)” value in [5] is recorded as “PC3”. Besides, the “Mutagenicity/genotoxicity in mammalian cells in vitro” value in data set [6] is “Genotoxic in HepaRG cells ([Seo et al., 2023])”.

Regarding `CN(N=O)C1CCC(c2ccc(Cl)c(Cl)c2)c2ccccc21` (centres unmarked) [NDSRI-21, N-(4-(3,4-Dichlorophenyl)-1,2,3,4-tetrahydronaphthalen-1-yl)-N-methylnitrous amide], in data set [7], the “Effect of length of preincubation on positive responses” value (from here on “Effect of length of preincubation”) is listed as “greater mutagenic responses with 30-min preincubations than with 60-min preincubations”. In addition, in data set [1] (listed as N-nitroso-sertraline), the “Mutagenic response in TA1535” value is listed as “negative; also recorded: not positive”. In addition, the “Mutagenic response in WP2 uvrA (pKM101)” value in [3] (listed as N-nitroso-sertraline) is recorded as “positive only; also recorded: mutagenic”. Further, in data set [3], the “Effectiveness of time of preincubation” value is recorded as 30min >60min and the “Effectiveness of hamster vs. rat S9s” value is recorded as “H only”. The AI limit in data set [4] is 100 ng/day. Besides, in data set [5], the “CPCA Potency Category (PC)” value was “PC2”.

Turning to `CN(CCC(Oc1cccc2ccccc12)c1cccs1)N=O` (centres unmarked) [NDSRI-20, N-Methyl-N-(3-naphthalen-1-yloxy-3-thiophen-2-ylpropyl) nitrous amide], the “Effectiveness of time of preincubation” value turned out to be 60min = 30min in [1], 30min >60min in [2] (strain TA100) and 60min = 30min in data set [3]. The “Ames response (all S9-mediated except where noted)” value (shortened to “Ames response”) in the data set with Ames tester strains (setting [10]) is given as “Positive”. Also, the AI limit in [4] is 100 ng/day. In data set [8] (species as in value, ref as given in Table 2 Notes), the “Mutagenicity in TGR assay” value is “Interim AI limit currently in force; mutagenic in rat TGR assay ([Jolly et al., 2024])”.

Regarding `CC(C)N(N=O)C(C)C` [SM-5, N,N-Di(propan-2-yl)nitrous amide], the “Activation condition required for positive responses” value in data set [7] (no S9, 10% and 30% rat or hamster liver S9, all strains, listed as NDIPA) was “positives were seen only with one strain (TA1535) and under one activation condition (preincubation with 30% hamster S9 mixes); also recorded: dependent upon preincubation with 30% hamster S9; also recorded: exclusively mutagenic with hamster liver S9”. In addition, in data set [1], the “Mutagenic response in TA1535” value is given as “only positive strain”, the “More effective %S9 in S9 mix of more effective S9 (H or R)” value came to 30% only, the “Effectiveness of time of preincubation” value amounted to 60min = 30min and the “Effectiveness of hamster vs. rat S9s” value is “H only”. Besides, in data set [4], the AI limit was 1500 ng/day. Further, the “CPCA Potency Category (PC)” value in [5] is “PC5”.

With `CN(CCC=C1c2ccccc2CCc2ccccc21)N=O` [NDSRI-18, N-Methyl-N-[3-(2-tricyclo[9.4.0.03,8]pentadeca-1 (15),3,5,7,11,13-hexaenylidene)propyl]nitrous amide], the “Effectiveness of time of preincubation” value in data set [1], in data set [2] (strain TA100) and in [3] was 60min = 30min in each case.

Take `CCN(N=O)c1ccccc1` [SM-8, N-Ethyl-N-phenylnitrous amide]: in data set [7], the “Effect of length of preincubation” value is “benefited from a preincubation of 60 min compared with 30 min”. Besides, the “Mutagenic response in TA1535” value is given as “negative” in data set [1] (setting [11]) and “not positive” in data set [1] (listed as NEPA). The “Mutagenic response in WP2 uvrA (pKM101)” value in data set [3] (setting [11]) is on record as “positive only”; in data set [3] (listed as NEPA) it was “mutagenic”. In data set [3], the “Effectiveness of time of preincubation” value came to 60min ≥ 30min. Moreover, in the data set with Ames tester strains, the “Ames response” value is given as “Positive only with comutagen”.

Regarding `CC(C)N(CC(O)COc1cccc2ccccc12)N=O` (centres unmarked) [NDSRI-17, N-(2-Hydroxy-3-naphthalen-1-yloxypropyl)-N-propan-2-ylnitrous amide], the “Effectiveness of time of preincubation” value in data set [1], in [2] (strain TA100) and in [9] (strain TA98) was 60min = 30min in each case. In [1] (setting [12]), the “S9-mediated mutagenicity in TA1535” value is “mutagenic”. Moreover, the “S9-mediated mutagenicity in TA100” value in [2] (setting [12]) was “mutagenic”. Further, the “Direct-acting mutagenicity in TA98” value was “b Direct acting mutagen in TA98” in data set [9] and “direct acting mutagen; also recorded: direct-acting mutagenicity of N-nitroso-propranolol was limited to TA98” in [9] (listed as N-nitroso-propranolol). Also, the “Ames response” value in the data set with Ames tester strains (setting [10]) is “Positive; direct-acting in TA98”. The AI limit in data set [4] was 1500 ng/day. The “CPCA Potency Category (PC)” value in data set [5] is listed as “PC4”.

Consider `CC(C)[C@H](C(=O)O)N(Cc1ccc(-c2ccccc2-c2nn[nH]n2)cc1)N=O` [NDSRI-25, (2R)-3-Methyl-2-[nitroso-[[4-[2-(2H-tetrazol-5-yl)phenyl]phenyl]methyl]amino]butanoic acid], for which, in the data set with Ames tester strains, the “Ames response” value is “Negative”. In [8] (in vivo), the “Mutagenicity in TGR assay” value is “Also negative in mouse TGR assay ([Glowienke et al., 2022])”.

As for `CN(CCC(Oc1ccc(C(F)(F)F)cc1)c1ccccc1)N=O` (centres unmarked) [NDSRI-22, N-Methyl-N-[3-phenyl-3-[4-(trifluoromethyl)phenoxy]propyl]nitrous amide], in data set [7] (listed as N-nitroso-fluoxetine), the “Effect of length of preincubation” value is on record as “greater mutagenic responses with 30-min preincubations than with 60-min preincubations”. Also, the “More effective %S9 in S9 mix of more effective S9 (H or R)” value in data set [1] came out at 30% only; in data set [2] (strain TA100, 10% vs 30% S9 in the S9 mix), 30% only; in data set [9] (strain TA98, 10% vs 30% S9 in the S9 mix), 30% only. Besides, the “Effectiveness of time of preincubation” value in [1] is on record as 60min = 30min; in [2] (strain TA100), 30min only; in [3], 30min >60min; in [9] (strain TA98), 30min only. For the same compound, the “Effectiveness of hamster vs. rat S9s” value is on record as “H only” in data set [1]; “H only” in [2] (strain TA100, H = hamster liver S9, R = rat liver S9); “H only” in [9] (strain TA98, H = hamster liver S9, R = rat liver S9). In the data set on Ames tester strains, the “Ames response” value was “Positive”. Moreover, the “Mutagenicity in TGR assay” value in data set [8] (in vivo) is “mutagenic in rat TGR assay”.

For `CN(C[C@H](O)c1cccc(O)c1)N=O` [NDSRI-13, N-[(2R)-2-Hydroxy-2-(3-hydroxyphenyl)ethyl)-N-methylnitrous amide], in [4], the AI limit was 100 ng/day. In data set [5], the “CPCA Potency Category (PC)” value is recorded as “PC2”.

As for `CCN(N=O)C(C)C` [SM-3, N-Ethyl-N-propan-2-ylnitrous amide], the “Effectiveness of time of preincubation” value in data set [1] and in data set [3] was 60min = 30min throughout. In addition, the AI limit in [4] is on record as 400 ng/day. Moreover, the “CPCA Potency Category (PC)” value in data set [5] is given as “PC3”. Moreover, the “Mutagenicity/genotoxicity in mammalian cells in vitro” value in [6] is “Genotoxic in HepaRG, TK6 cells ([Li et al., 2022]; [Seo et al., 2023])”.

As to `C[C@H]1CN(N=O)CCc2ccc(Cl)cc21` [NDSRI-14, (5R)-7-Chloro-5-methyl-3-nitroso-1,2,4,5-tetrahydro-3-benzazepine], the “Effectiveness of time of preincubation” value in data set [1], in [2] (strain TA100), in [3] and in data set [9] (strain TA98) was 60min = 30min each time.

Regarding `O=NN(c1ccccc1CC(=O)O)c1c(Cl)cccc1Cl` [NDSRI-19, 2-[2-(2,6-Dichloro-N-nitrosoanilino)phenyl]acetic acid], the AI limit in [4] was 1500 ng/day.

In the case of `CN(CCOC(c1ccccc1)c1ccccc1)N=O` [NDSRI-16, N-(2-(Benzhydryloxy)ethyl)-N-methylnitrous amide], in [7], the “Effect of length of preincubation” value is given as “possibly N-nitroso-desmethyl-diphenhydramine benefited from a preincubation of 60 min compared with 30 min”. Also, the “Effectiveness of time of preincubation” value in data set [1] worked out at 60min = 30min; in data set [2] (strain TA100), 60min = 30min; in data set [3], 60min >30min.

As to `CCCCCCOC(=O)NC(=N)c1ccc(N(Cc2nc3cc(C(=O)N(CCC(=O)OCC)c4ccccn4)ccc3n2C)N=O)cc1` [NDSRI-29, Ethyl 3-[[2-[[4-(N-hexoxycarbonylcarbamimidoyl)-N-nitrosoanilino]methyl]-1-methylbenzimidazole-5-carbonyl]-pyridin-2-ylamino]propanoate], in data set [4], the AI limit is reported as 400 ng/day. Further, the “CPCA Potency Category (PC)” value in data set [5] is given as “PC3”.

(Values after article PMC12395388 (Regulatory toxicology and pharmacology : RTP, 2024).)
